Drawing on patent US7696374B2, “Arylalklcarbamate derivatives, preparation method thereof and use of same in therapeutics” (Sanofi-Aventis, priority 2003, dated 2010), this text covers melting point for six molecules.

One may read the melting point as the temperature of the solid-liquid transition.

In the case of `COc1ccc(OC(=O)NCc2ccc(Oc3ccccc3)cc2)cc1`, the melting point lay in the range of 89 to 91 °C.

In the case of `Cc1ccc(OC(=O)NCCc2ccc(-c3ccccc3)cc2)cc1`, the melting point lay within 172 to 174 °C.

In turn, `O=C(NCc1ccc(-c2ccccc2)cc1)Oc1ccc(F)cc1` returned a melting point of 155 to 157 °C.

Take `O=C(NCc1ccc(-c2ccccc2)cc1)OCC(F)(F)F` [Compound No. 1, 2,2,2-Trifluoroethyl 1,1′-biphenyl-4-ylmethylcarbamate]: the melting point is 123 to 125 °C.

`O=C(NCc1ccc(Oc2ccccc2)cc1)OCC(F)(F)F` [Compound No. 10, 2,2,2-Trifluoroethyl 4-phenyloxybenzylcarbamate] returned a melting point of 145 to 148 °C.

`O=C(NCCc1ccc(-c2ccccc2)cc1)OCC(F)(F)F` [Compound No. 19, 2,2,2-Trifluoroethyl 2-(1,1′-biphenyl-4-yl)ethylcarbamate] showed a melting point of 79 to 81 °C.
